Assay results reported in patent US6160008A, “Pharmaceutical compositions comprising S-alkylisothiouronium derivatives” (priority 1996, dated 2000).
“Also recorded” adds a separate entry of the source.

What was measured:
[1] = test system: system hemodynamic indices during hemorrhagic shock; experiment: System hemodynamic indices during hemorrhagic shock (Table 4); format: in vivo, cats
Protocol: For the experimental model of hemorrhagic shock closely resembling acute clinical situations, acute blood loss in cats was chosen (3.2% of the body mass) which constitutes 45-47% of the blood circulation volume during 3-5 minutes. To determine maximum efficiency and effective duration, parameters of the system blood circulation were determined before blood-letting and in 30 minutes after blood-letting, as well as on the 2nd, 10th, 30th and 60th minutes after intravenous injection of the medicine.

[2] = test system: acid-base balance and gas composition of mixed venous blood; experiment: Acid-base balance and gas composition of mixed venous blood in hemorrhagic shock (Table 7); format: in vivo, cats; settings: 5 mg/kg i.v.; for Bicarbonate ion content (HCO3 a) / Buffer bases (BBa) / Buffer bases shift (BBa) / Carbonic acid gas tension (PaCO2): mixed venous blood
Protocol: The influence of S-ethylisothiouronium diethylphosphate on the major indices of the blood acid-base state (AAS) and gas content in hemorrhagic shock was studied at a dose of 5 mg/kg. The cats were narcotized intraperitoneally with pentobarbital sodium (nembutal) at a dose of 40 mg/kg. The blood loss was caused by blood-letting from the common carotid artery in an amount of 3.2% of the animal body mass, which approximately corresponds to 45-47% of the blood circulation volume. The blood-letting was carried out during 3-5 minutes. Tension characteristics of oxygen and carbon dioxide in arterial (PaO2, PaCO2) and mixed venous (PvO2, PvCO2) blood, pHa and pH were studied by Astrup micromethod. The hemoglobin content (Hb) was determined by the cianohemoglobin method. Bicarbonate ion content /HCO3 was calculated with the help of the Severinghause ruler. Calculations were carried out on the CM-1403-02 computer in the Forhtran language program. Indices of the acid-base balance and blood gas content were studied in the initial state, on the 30th minute after acute bleeding as well as on 2nd, 10th, 30th, and 60th minute after the medicine injection. The substance was injected singly intravenously on the 30th minute after the blood-letting.
In the test group (n=6), S-ethylisothiouronium diethylphosphate was injected at a dose of 5 mg/kg.

[3] = test system: system hemodynamic indices; experiment: System hemodynamic indices in narcotised cats (Table 2); format: in vivo
Protocol: An experimental study of the S-ethylisothiouronium diethylphosphate effect on the indices of system hemodynamics were performed on 8 narcotised cats with a body mass of 2-4 kg. Urethane (30% solution intraperitoneally, 1-1.2 g/kg) was used for narcostisation. To determine the period of maximum efficiency and duration of the preparation effect, the major parameters of the blood circulation were determined before its introduction (initial data) and on the 2nd, 15th, 30th, and 60th minute after the introduction, at a dose of 5 mg/kg.
The system hemodynamics was estimated on the basis of the following indices: arterial blood pressure (AP), heart rate (HR), minute volume of blood circulation (MVC), stroke volume of the heart (SV), total vascular peripheral resistance (PR), work of the left ventricle (Alv).
The arterial pressure was measured in the left […] of cats by a mercury pressure gauge. To prevent blood clotting, 0.2-0.3 ml (1000-1500 units) of heparin was injected intravenously. Heart rate was calculated according to the R--R interval of electrocardiogram. Recording was performed through two-channel electrocardiograph. MVC was calculated according to Ramirez A. A. et al. (1956). SV, ARV, and PR were calculated from the data on MVC, AP, central blood volume, and HR using C. G Wiggers formular (1947). Quantitative material obtained in the experiments was subjected to statistical analysis by the Student t-test.

[4] = 5 mg/kg i.v., 2 min after injection
[5] = 5 mg/kg i.v., 10 min after injection
[6] = 5 mg/kg i.v., 30 min after injection
[7] = 5 mg/kg i.v., 60 min after injection
[8] = 5 mg/kg i.v., 15 min after injection

Question: Which results are given for CCSC(=N)N [S-ethylisothiouronium diethylphosphate]?
Answer: AP increase compared to the 30th minute after bleeding ([1]; 5 mg/kg i.v., 2nd minute): 88%; ALV [1, 4]: 166.6 ± 18.4 g/cm; AP [1, 4]: 122.3 ± 6.0 mm Hg; Central blood volume [1, 4]: 58.6 ± 4.1 mL; HF [1, 4]: 182.0 ± 15.0 per min.; MVC [1, 4]: 52.4 ± 6.0 mL/min/kg; Number of blood circulations [1, 4]: 2.9 ± 0.2 min; Pr [1, 4]: 202.8 ± 28.7 10^3 . din . c . cm^-3; Stroke volume [1, 4]: 1.0 ± 0.1 mL; ALV [1, 5]: 130.5 ± 15.4 g/cm; AP [1, 5]: 112.5 ± 7.6 mm Hg; Central blood volume [1, 5]: 49.2 ± 4.5 mL; HF [1, 5]: 186.0 ± 14.1 per min.; MVC [1, 5]: 46.0 ± 5.7 mL/min/kg; Number of blood circulations [1, 5]: 3.0 ± 0.2 min; Pr [1, 5]: 225.1 ± 56.6 10^3 . din . c . cm^-3; Stroke volume [1, 5]: 0.9 ± 0.1 mL; ALV [1, 6]: 75.9 ± 19.4 g/cm; AP [1, 6]: 87.5 ± 15.4 mm Hg; Central blood volume [1, 6]: 43.2 ± 4.7 mL; HF [1, 6]: 179.1 ± 12.4 per min.; MVC [1, 6]: 30.8 ± 5.5 mL/min/kg; Number of blood circulations [1, 6]: 2.4 ± 0.3 min; Pr [1, 6]: 244.7 ± 39.1 10^3 . din . c . cm^-3; Stroke volume [1, 6]: 0.6 ± 0.1 mL; ALV [1, 7]: 77.0 ± 17.0 g/cm; AP [1, 7]: 84.2 ± 18.9 mm Hg; Central blood volume [1, 7]: 45.5 ± 5.1 mL; HF [1, 7]: 166.8 ± 15.2 per min.; MVC [1, 7]: 35.7 ± 5.5 mL/min/kg; Number of blood circulations [1, 7]: 3.5 ± 0.2 min; Pr [1, 7]: 245.3 ± 62.6 10^3 . din . c . cm^-3; Stroke volume [1, 7]: 0.7 ± 0.1 mL; MVC increase ([1]; 5 mg/kg i.v., initially): 19%; Effect in hemorrhagic shock in words ([1]; hemorrhagic shock, cats): the decrease in HR was noted; also recorded: SV increased only on the 2nd minute after the medicine injection; also recorded: Alv essentially increased on the 2nd and 10th minutes; also recorded: PR increased during the whole period of observation; also recorded: practically does not lose efficiency in case of metabolic acidosis; also recorded: improves system hemodynamic indices in hemorrhagic shock conditions; also recorded: the peripheral vascular resistance increases, the stroke volume and central blood volume increase, and the work of the left ventricle improves; Oxygen tension (PvO2) ([2]; 10 min): 41.866 ± 11.242; pHv ([2]; 10 min after injection): 7.252 ± 0.011; Oxygen tension (PvO2) ([2]; 30 min): 40.533 ± 11.332; pHv ([2]; 30 min after injection): 7.222 ± 0.016; Oxygen tension (PvO2) ([2]; 60 min): 27.783 ± 4.824; pHv ([2]; 60 min after injection): 7.150 ± 0.130; Bicarbonate ion content (HCO3 a) ([2]; 10 min): 17.116 ± 1.576 mmol/L; Buffer bases (BBa) ([2]; 10 min): 34.500 ± 2.342 mmol/L; Buffer bases shift (BBa) ([2]; 10 min): -8.500 ± 1.491 mmol/L; Carbonic acid gas tension (PaCO2) ([2]; 10 min): 40.516 ± 4.340 mm Hg; Bicarbonate ion content (HCO3 a) ([2]; 30 min): 16.150 ± 1.951 mmol/L; Buffer bases (BBa) ([2]; 30 min): 32.266 ± 3.254 mmol/L; Buffer bases shift (BBa) ([2]; 30 min): -9.966 ± 1.388 mmol/L; Carbonic acid gas tension (PaCO2) ([2]; 30 min): 40.350 ± 4.611 mm Hg; Bicarbonate ion content (HCO3 a) ([2]; 60 min): 17.800 ± 2.162 mmol/L; Buffer bases (BBa) ([2]; 60 min): 33.833 ± 3.943 mmol/L; Buffer bases shift (BBa) ([2]; 60 min): -11.266 ± 2.569 mmol/L; Carbonic acid gas tension (PaCO2) ([2]; 60 min): 55.533 ± 5.049 mm Hg; AP increase relative to the initial level ([3]; 5 mg/kg i.v., 2nd minute): 41%; Alv above the initial value ([3]; 5 mg/kg i.v., 2nd minute): 89%; MVC increase ([3]; 5 mg/kg i.v., 2nd minute): 7%; PR, % of the initial level ([3]; 5 mg/kg i.v., 2nd minute): 135%; Alv above the initial value ([3]; 5 mg/kg i.v., 15th minute): 22%; MVC decrease ([3]; 5 mg/kg i.v., 15th minute): 11%; MVC decrease ([3]; 5 mg/kg i.v., 30th minute): 22%; AP above the initial level ([3]; 5 mg/kg i.v., 60th minute): 11%; PR above the initial value ([3]; 5 mg/kg i.v., 60th minute): 58%; AP [3, 4]: 168 ± 9.9 mm Hg; Alv [3, 4]: 486.2 ± 136.8 g·cm; HF [3, 4]: 166 ± 17.9 per min.; MVC [3, 4]: 101.9 ± 6.8 mL/min; PR [3, 4]: 138.6 ± 10.5 10^3 . din . c . cm^-5 /kg; Stroke volume [3, 4]: 2.14 ± 0.45 mL; AP [3, 8]: 158 ± 8.1 mm Hg; Alv [3, 8]: 317.1 ± 59.4 g·cm; HF [3, 8]: 178 ± 15.4 per min.; MVC [3, 8]: 84.3 ± 5.7 mL/min; PR [3, 8]: 153.8 ± 7.1 10^3 . din . c . cm^-5 /kg; Stroke volume [3, 8]: 1.46 ± 0.25 mL; AP [3, 6]: 152 ± 8.4 mm Hg; Alv [3, 6]: 251.9 ± 50.3 g·cm; HF [3, 6]: 192 ± 11.9 per min.; MVC [3, 6]: 74.1 ± 5.2 mL/min; PR [3, 6]: 168.5 ± 13.0 10^3 . din . c . cm^-5 /kg; Stroke volume [3, 6]: 1.23 ± 0.21 mL; AP [3, 7]: 132 ± 9.3 mm Hg; Alv [3, 7]: 211.3 ± 56.1 g·cm; HF [3, 7]: 188 ± 10.4 per min.; MVC [3, 7]: 67.6 ± 8.4 mL/min; PR [3, 7]: 161.5 ± 14.1 10^3 . din . c . cm^-5 /kg; Stroke volume [3, 7]: 1.13 ± 0.26 mL; Duration of hypertensive effect ([3]; 5 mg/kg i.v., single injection): up to 1 hour; Effect on system hemodynamics in words ([3]; cats): on the 30th minute it returned to the initial level
